Target: T1, BC4707 (Bacillus cereus, UniProt Q816V8)
T1 construct: gene BC_4707; full-length with RGSHis6 tag (kept), expressed from pTTQ18 (pBC4707) in E. coli DH5alpha delta-acrAB
Test: norfloxacin accumulation assay, fluorescence of cell extracts vs empty-vector cells
Type: cell-based
Conditions: E. coli DH5alpha delta-acrAB, 100 uM norfloxacin, 20 mM glucose, pH 7.0; CCCP (100 uM) added at 15 min

T1 sequence (Q816V8 entry or part of it): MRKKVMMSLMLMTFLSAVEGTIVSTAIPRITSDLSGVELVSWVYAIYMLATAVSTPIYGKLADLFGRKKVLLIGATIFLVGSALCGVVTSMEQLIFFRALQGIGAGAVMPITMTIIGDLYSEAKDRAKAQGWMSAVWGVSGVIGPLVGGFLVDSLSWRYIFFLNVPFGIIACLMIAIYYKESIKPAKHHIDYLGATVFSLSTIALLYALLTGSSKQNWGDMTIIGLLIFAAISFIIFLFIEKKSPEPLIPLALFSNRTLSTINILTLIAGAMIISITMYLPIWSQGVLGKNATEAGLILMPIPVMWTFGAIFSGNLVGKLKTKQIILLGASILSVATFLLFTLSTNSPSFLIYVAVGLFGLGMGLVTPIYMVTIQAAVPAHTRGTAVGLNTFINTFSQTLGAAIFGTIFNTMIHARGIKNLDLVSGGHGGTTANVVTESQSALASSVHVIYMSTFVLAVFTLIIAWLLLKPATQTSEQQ

CCn1cc(C(=O)O)c(=O)c2cc(F)c(N3CCNCC3)cc21 [norfloxacin]
norfloxacin accumulation assay, fluorescence of cell extracts vs empty-vector ce: indicating that the presence of BC4707-RGSHis6 prevents accumulation of norfloxacin in the cells

Source: paper PMC3353944, “BC4707 Is a Major Facilitator Superfamily Multidrug Resistance Transport Protein from Bacillus cereus Implicated in Fluoroquinolone Tolerance” (PLoS ONE, 2012)
